Test results: patent US20070224645A1, “Novel cell-based phosphodiesterase assays” (priority 2006, published 2007)
Entries after “also recorded” stand apart in the source; their conditions may differ.

Each compound was assayed on PDE IV (assay: Cell-based PDE assay in ACTOne-IRES-A2b#2 cell line with ACTOne Membrane Potential dye, no external cAMP stimulation). Conditions: ACTOne-IRES-A2b#2 cell line (HEK293-CNG overexpressing human adenosine A2b receptor); readings before and 30 minutes after compound addition.
Method: Before the assay, all cells are harvested when they reach 80-90% confluence or less, and they should not be overgrown. Culture medium of the transfected cells was removed and replaced with a volume of Dulbecco's Phosphate Buffers Saline without calcium and magnesium (DPBS) to adequately cover and wash the cells. The DPBS was removed and a sufficient volume of 1× trypsin-EDTA was added to just cover the cells (i.e. 1 ml for a 10 cm dish, 2 ml for a T75 flask, and 5 ml for a T150 flask). The plate was agitated to make sure the cells were equally covered with the solution. The cells were trypsinized at room temperature for about 5 min. After 5 min, the cells were examined to ensure that they were detached from the dish or flask. Gentle tapping of the dish/flask may aid in the process. Sufficient serum-containing medium were added to an appropriate volume and the medium was pipetted up and down through a serological pipette for 4 times to obtain a single cell suspension. A portion of the cells were counted with a hemocytometer. Cells are diluted in their appropriate medium at 7×10^5 cells/ml. 100 μl/well of cell suspension is added to 96-well plates or 20 μl/well is added to 384-well plates 16-24 hours before use. For cells with HEK293 background, poly-D-lysine-coated plates are recommended. Optimal assay conditions using standard fluorescence plate readers require a confluent monolayer of cells prior to the assay. The number of cells used per well will depend upon a number of conditions including the cell line and the instrument being used to make the reading. Cell plates are removed from the incubator after overnight incubation and examined under microscope. A confluent lawn of consistently spread cells is observed. An equal volume of IX Membrane Potential Dye Solution (BD Biosciences, Rockville, Md.) is then added to each well (e.g. 100 μl to 100 μl culture medium/well for 96-well plates, or 20 μl to 20 μl culture medium/well for 384-well plates). […] The cell plates are further incubated for 2 hrs at room temperature in the dark. Membrane potential assays are performed as described in the manual for ACTOne Membrane Potential Dye Kit (BD Biosciences, Rockville, Md.). Test compounds can be added on-line (some fluorescence plate readers also have fluid addition module, and therefore compound addition and fluorescence intensity reading can happen simultaneously. i.e. FLIPR and FlexStation) or off-line (other liquid handling equipments are used for compound addition). Test compounds in 1×DPBS was added to the cell plates at 50 μl/well for 96-well plates (250 μl total well volume after addition) or 10 μl/well for 384-well plates (50 μl total well volume after addition). Cell plates are loaded into a FLIPR, FLEXstation, or other fluorescence microplate reader to read fluorescence intensity before and after compound addition. The settings on FLIPR are described in the manuals from the manufacturer. For FLEXstation and other fluorescence microplate readers, wavelengths close to the maxima of absorption and emission of the dye are used: for example, 530 nm excitation, 550 auto cut-off, and 565 nm emission. […] Fluorescence intensity counts obtained before and 30 minutes after compound addition were used for data analysis. […] It has been reported that PDE4 is a dominant isozyme in HEK293 cells. In order to analyze the specificity of the PDE assay, different PDE inhibitors (Ro20-1724, Rolipram, Etazolate (PDE IV inhibitors); 8-methoxymethyl-3-isobuty-1-m (PDE I inhibitor); Zaprinast (cGMP specific PDE inhibitor); Quazinon (PDE III inhibitor); IBMX (pan PDE inhibitor)) were purchased from Sigma. They were diluted at different concentrations in 1×DPBS and the assays were performed the same as above using the ACTOne-IRES-A2b#2 cell line. Briefly, the cells were plated on 384-well PDL coated plate. The density of the cells was 14,000 cells per well. The cells were allowed to attach and grow overnight. […]

SMILES | detection of PDE inhibitor activity (dose response, fluorescence intensity)
COCc1nc2c([nH]1)c(=O)n(C)c(=O)n2CC(C)C [8-methoxymethyl-3-isobuty-1-m, 8-Methoxymethyl-3-isobutyl-1-methylxanthine] | negative signals
CCOC(=O)c1cnc2c(cnn2CC)c1NN=C(C)C.Cl [Etazolate, 1-ethyl-4-[(1-methylethylidene)hydrazino]1H-pyrazol-o[3,4-b]pyridine-5-carboxylic acid ethyl ester hydrochloride] | detected
CC(C)Cn1c(=O)n(C)c(=O)c2[nH]cnc21 [IBMX, 3-Isobutyl-1-methylxanthine] | can not be detected; also recorded: negative signals
C[C@@H]1C(=O)NC2=Nc3cccc(Cl)c3CN21 [Quazinon] | negative signals
CCCCOc1cc(CC2CNC(=O)N2)ccc1OC (stereo not shown) [Ro20-1724] | detected
COc1ccc(C2CNC(=O)C2)cc1OC1CCCC1 (stereo not shown) [Rolipram, 4-[3-(cyclopentyloxy)-4-methoxyphenyl]-2-pyrrolidinone] | detected
CCCOc1ccccc1-c1nc2nn[nH]c2c(=O)[nH]1 [Zaprinast] | negative signals
